Here are results for 3 compounds from patent publication US6691045B1, “Method for determining discrete quantitative structure activity relationships” (Chemical Computing Group Inc., priority 1998, dated 2004).

One assay concerns estrogen receptor. Conditions: relative binding affinity scale, estradiol = 100; binding at 0 to 4° C.; presumed ER-α; cited from earlier work.
Assay [1] addresses T1, Carbonic Anhydrase II receptor (Homo sapiens, UniProt P00918). The assay can be described thus: binding affinity to Carbonic Anhydrase II, from scientific literature. To be noted: threshold value 5.85. An excerpt:
Each compound is given a numerical value indicating its binding affinity. Beside each drawing in Table 1, is a quantitative experimental assessment of binding affinity.
Otherwise, it would be 1.

Assay [2] has as its target T1, Carbonic Anhydrase II receptor. Conditions: example initial data set; cited from earlier work.

Regarding `CC/C(=C(/CC)c1ccc(O)cc1)c1ccc(O)cc1` [DES, desthylstilbestrol], the “log RBA” value in the assay on estrogen receptor was 2.48.

Turning to `CC(=O)Nc1nnc(S(=O)(=O)NC(C)C)s1`, the “CLASS (activity class, active/inactive)” value in assay [1] (structures as SMILES) is reported as 0 (If the activity value is less than 5.85, the activity class is 0); in assay [1] (structures as drawings), 0 (If the activity value is less than 5.85, the activity class is 0). Further, the “ACTIVITY (quantitative experimental assessment of binding affinity)” value in assay [2] was 5.80.

Take `CNS(=O)(=O)c1cccc(O)c1`: the “CLASS (activity class, active/inactive)” value in assay [1] (structures as SMILES) is given as 1 (Otherwise, it would be 1); in assay [1] (structures as drawings), 1 (Otherwise, it would be 1). The “ACTIVITY (quantitative experimental assessment of binding affinity)” value in assay [2] was 5.92.
